Measured values published in US11912699B2, “Tau-protein targeting compounds and associated” (Arvinas Operations, Inc., priority 2019, dated 2024).

molecular target: T1, Tau P301L (Homo sapiens, UniProt P10636, P618L); test: In vitro tau degradation assay in CHOK1 Tau P301L cells (sarkosyl insoluble tau, WES); type: cell-based; conditions: CHO-K1; remaining tau protein in sarkosyl insoluble pellet; CHOK1 Tau P301L cells treated 48 hours with test compound at 1 μM, doxycycline removed for the last 24 hours; relative to DMSO doxycycline control; read-out: Tau Protein Degradation effect at 1 μM
T1 construct: expressed in transfected cells
Procedure: Exemplary bifunctional molecules of the present disclosure are represented by the structures in Table 1, which includes associated data. In vitro tau protein degradation data in CHOK1 Tau P301L cells, as described below, is reported based on the remaining tau protein in the sarkosyl insoluble pellet following treatment of cells for 48 hours with test compound at the 1 μM concentration where the last 24 hours doxycycline was removed. The data are represented relative to DMSO doxycycline control: • A ≤50% of tau protein remaining (>50% of tau protein degraded) • B >50% of tau protein remaining ([…] of tau protein degraded)
Data for compounds in Table 1 was generated using in vitro tau Degradation Assay protocol as described in Methods for FIGS. 2A and 2B below.
FIGS. 2A and 2B. (2A) Tau expression was induced by addition (+) of doxycycline (1 μg/ml) to ChoK1-Tau P301L clone D1.
In vitro tau Degradation Assay for FIGS. 2A and 2B. T-Rex CHOK1 cells are maintained in Ham's F-12 Nutrient Mix (ThermoFisher) plus 10% Fetal Bovine Serum Tetracycline Negative (Corning) with 10 ug/mL Blasticidin S HCl (Gibco) and 200 ug/mL Zeocin (100 mg/mL, Invitrogen). A stable clone expressing Tau P301L in the presence of doxycycline (1 μg/ml), clone D1 was selected. Compounds were diluted to indicated concentrations and used to treat cells for the indicated times. Cells were harvested from either 96, 24, 6, or 10 cm dishes coated with Poly-D-Lysine (Corning) in ice cold PBS or Buffer H+HALT Protease and phosphatase inhibitors (Thermofisher). Sarkosyl Insoluble tau was isolated as described in Eckermann et al. and Greenberg and Davies, accordingly. WES™ capillary electrophoresis analysis was performed on the Sarkosyl Insoluble tau fraction using Tau1 antibody (Milipore) unless otherwise indicated, as specified in the manufacturers specification (ProteinSimple).

T1 sequence (P10636 1-441 isoform P10636-8 P301L): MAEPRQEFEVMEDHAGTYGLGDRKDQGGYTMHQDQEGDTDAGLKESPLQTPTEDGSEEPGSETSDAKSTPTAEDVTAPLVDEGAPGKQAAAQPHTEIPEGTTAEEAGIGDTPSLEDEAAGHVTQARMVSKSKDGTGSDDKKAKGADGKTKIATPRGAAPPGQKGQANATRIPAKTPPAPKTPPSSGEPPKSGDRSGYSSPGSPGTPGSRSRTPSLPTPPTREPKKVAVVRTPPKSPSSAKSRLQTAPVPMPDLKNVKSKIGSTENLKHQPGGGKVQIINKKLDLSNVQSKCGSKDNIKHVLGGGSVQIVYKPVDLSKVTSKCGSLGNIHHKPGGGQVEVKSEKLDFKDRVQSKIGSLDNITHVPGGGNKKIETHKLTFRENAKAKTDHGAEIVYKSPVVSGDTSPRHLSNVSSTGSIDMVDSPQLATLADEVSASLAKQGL

Row | Structure (SMILES) | remaining activity at 1 µM [%]
1 | Cc1ncsc1-c1ccc([C@H](C)NC(=O)[C@@H]2C[C@@H](O)CN2C(=O)[C@@H](c2cc(OCCN3CCC(OC4CN(c5ccc(-c6ccc7c8cnccc8n(C)c7c6)cn5)C4)CC3)no2)C(C)C)cc1 (single isomer, unassigned) [Compound 467] | > 50
2 | Cc1ncsc1-c1ccc([C@H](C)NC(=O)[C@@H]2C[C@@H](O)CN2C(=O)C(c2cc(OCCOCCOCCOc3ccc(-c4ccc5c(c4)[nH]c4ccncc45)cn3)no2)C(C)C)cc1 (stereo in doubt) [Compound 395, (2S,4R)-1-((S)-2-(3-(2-(2-(2-((5-(5H-pyrido[4,3-b]indol-7-yl)pyridin-2-yl)oxy)ethoxy)ethoxy)ethoxy)isoxazol-5-yl)-3-methylbutanoyl)-4-hydroxy-N-((S)-1-(4-(4-methylthiazol-5-yl)phenyl)ethyl) pyrrolidine-2-carboxamide] | > 50
3 | Cn1c2ccncc2c2ccc(-c3ccc(O[C@H]4C[C@H](Oc5ccc(C#CCN6CC(Oc7ccc8c(c7)CN(C7CCC(=O)NC7=O)C8=O)C6)nc5)C4)nc3)cc21 (stereo partly shown) [Compound 340, 3-(5-((1-(3-(5-((1r,3r)-3-((5-(5-methyl-5H-pyrido[4,3-b]indol-7-yl)pyridin-2-yl)oxy)cyclobutoxy)pyridin-2-yl)prop-2-yn-1-yl)azetidin-3-yl)oxy)-1-oxoisoindolin-2-yl)piperidine-2,6-dione] | > 50
4 | Cn1c2ccncc2c2ccc(-c3ccc(O[C@H]4C[C@H](OC5CCN(CCN6CCN(c7ccc8c(c7)C(=O)N(C7CCC(=O)NC7=O)C8=O)CC6)CC5)C4)nc3)cc21 (stereo partly shown) [Compound 341, 2-(2,6-dioxopiperidin-3-yl)-5-(4-(2-(4-((1r,3r)-3-((5-(5-methyl-5H-pyrido[4,3-b]indol-7-yl)pyridin-2-yl)oxy)cyclobutoxy)piperidin-1-yl)ethyl)piperazin-1-yl) isoindoline-1,3-dione] | > 50
5 | Cn1c2ccncc2c2ccc(-c3ccc(O[C@H]4C[C@H](OCCCN5CCN(c6ccc7c(c6)C(=O)N(C6CCC(=O)NC6=O)C7=O)CC5)C4)nc3)cc21 (stereo partly shown) [Compound 343, 2-(2,6-dioxopiperidin-3-yl)-5-(4-(3-((1r,3r)-3-((5-(5-methyl-5H-pyrido[4,3-b]indol-7-yl)pyridin-2-yl)oxy)cyclobutoxy)propyl)piperazin-1-yl)isoindoline-1,3-dione] | < 50
6 | Cn1c2ccncc2c2ccc(-c3ccc(O[C@H]4C[C@H](Oc5ccc(C#CCNCCCc6ccc7c(c6)CN(C6CCC(=O)NC6=O)C7=O)nc5)C4)nc3)cc21 (stereo partly shown) [Compound 346, 3-(5-(3-((3-(5-((1r,3r)-3-((5-(5-methyl-5H-pyrido[4,3-b]indol-7-yl)pyridin-2-yl)oxy)cyclobutoxy)pyridin-2-yl)prop-2-yn-1-yl)amino)propyl) 1-oxoisoindolin-2-yl)piperidine-2,6-dione] | > 50
7 | Cc1ncsc1-c1ccc([C@H](C)NC(=O)[C@@H]2C[C@@H](O)CN2C(=O)[C@@H](NC(=O)COCCOCCOCCOCCOCCOc2cc3ccn(-c4cc5c(N)cccc5cn4)c3cn2)C(C)(C)C)cc1 [Compound 351, (2S,4R)-1-((S)-20-((1-(5-aminoisoquinolin-3-yl)-1H-pyrrolo[2,3-c]pyridin-5-yl)oxy)-2-(tert-butyl)-4-oxo-6,9,12,15,18-pentaoxa-3-azaicosanoyl)-4-hydroxy-N-((S)-1-(4-(4-methylthiazol-5-yl)phenyl)ethyl) pyrrolidine-2-carboxamide] | > 50
8 | Nc1cccc2cnc(-n3ccc4cc(OCCOCCOCCOCCOCCOc5ccc6c(c5)C(=O)N(C5CCC(=O)NC5=O)C6=O)ncc43)cc12 (stereo not shown) [Compound 352, 5-((14-((1-(5-aminoisoquinolin-3-yl)-1H-pyrrolo[2,3-c]pyridin-5-yl)oxy)-3,6,9, 12-tetraoxatetradecyl)oxy)-2-(2,6-dioxo-piperidin-3-yl) isoindoline-1,3-dione] | < 50
9 | Nc1cccc2cnc(-n3ccc4cc(OCCOCCOCCOCCOc5ccc6c(c5)C(=O)N(C5CCC(=O)NC5=O)C6=O)ncc43)cc12 (stereo not shown) [Compound 353, 5-(2-(2-(2-(2-((1-(5-aminoisoquinolin-3-yl)-1H-pyrrolo[2,3-c]pyridin-5-yl)oxy)ethoxy)ethoxy)ethoxy)ethoxy)-2-(2,6-dioxopipieridin-3-yl)isoindoline-1,3-dione] | < 50
10 | Cc1cnc(Nc2ccc3cnccc3c2)cc1OCCOCCOCCOCCOc1ccc2c(c1)C(=O)N(C1CCC(=O)NC1=O)C2=O (stereo not shown) [Compound 369, 2-(2,6-dioxopiperidin-3-yl)-5-(2-(2-(2-(2-((2-(isoquinolin-6-ylamino)-5-methylpyridin-4-yl)oxy)ethoxy)ethoxy)ethoxy)ethoxy) isoindoline-1,3-dione] | < 50
11 | Cc1ncsc1-c1ccc([C@H](C)NC(=O)[C@@H]2C[C@@H](O)CN2C(=O)[C@@H](c2cc(OCCN3CCN(CCN4CCC(O[C@H]5C[C@H](Oc6ccc(-c7ccc8c9cnccc9n(C)c8c7)cn6)C5)CC4)CC3)no2)C(C)C)cc1 [Compound 372, (2S,4R)-4-hydroxy-1-((R)-3-methyl-2-(3-(2-(4-(2-(4-((1r,3r)-3-((5-(5-methyl-5H-pyrido[4,3-b]indol-7-yl)pyridin-2-yl)oxy)cyclobutoxy)piperidin-1-yl)ethyl)piperazin-1-yl)ethoxy)isoxazol-5-yl)butanoyl)-N-((S)-1-(4-(4-methylthiazol-5-yl)phenyl)ethyl) pyrrolidine-2-carboxamide] | > 50
12 | Cc1ncsc1-c1ccc([C@H](C)NC(=O)[C@@H]2C[C@@H](O)CN2C(=O)[C@@H](NC(=O)COCCOCCOCCOCCOc2ccc3cc(-n4ccc5ccncc54)ncc3c2)C(C)(C)C)cc1 [Compound 375, (2S,4R)-1-((S)-17-((3-(1H-pyrrolo[2,3-c]pyridin-1-yl)isoquinolin-7-yl)oxy)-2-(tert-butyl)-4-oxo-6,9,12,15-tetraoxa-3-azaheptadecanoyl)-4-hydroxy-N-((S)-1-(4-(4-methylthiazol-5-yl)phenyl)ethyl) pyrrolidine-2-carboxamide] | > 50
13 | Cc1ncsc1-c1ccc([C@H](C)NC(=O)[C@@H]2C[C@@H](O)CN2C(=O)[C@@H](NC(=O)COCCCCCN2CCC(OC3CC(Oc4ccc(-c5ccc6c7cnccc7n(C)c6c5)cn4)C3)CC2)C(C)(C)C)cc1 (stereo partly drawn) [Compound 377, (2S,4R)-1-((S)-3,3-dimethyl-2-(2-((5-(4-((1r,3r)-3-((5-(5-methyl-5H-pyrido[4,3-b]indol-7-yl)pyridin-2-yl)oxy)cyclobutoxy)piperidin-1-yl)pentyl)oxy)acetamido)butanoyl)-4-hydroxy-N-((S)-1-(4-(4-methythiazol-5-yl)phenyl)ethyl) pyrrolidine-2-carboxamide] | > 50
14 | Cc1ncsc1-c1ccc([C@H](C)NC(=O)[C@@H]2C[C@@H](O)CN2C(=O)[C@H](c2cc(OCCCCCN3CCC(O[C@H]4C[C@H](Oc5ccc(-c6ccc7c8cnccc8n(C)c7c6)cn5)C4)CC3)no2)C(C)C)cc1 [Compound 378, (2S,4R)-4-hydroxy-1-((S)-3-methyl-2-(3-((5-(4-((1r,3r)-3-((5-(5-methyl-5H-pyrido[4,3-b]indol-7-yl)pyridin-2-yl)oxy)cyclobutoxy)piperidin-1-yl)pentyl)oxy)isoxazol-5-yl)butanoyl)-N-((S)-1-(4-(4-methylthiazol-5-yl)phenyl)ethyl) pyrrolidine-2-carboxamide] | > 50
15 | Cc1ncsc1-c1ccc([C@H](C)NC(=O)[C@@H]2C[C@@H](O)CN2C(=O)[C@@H](c2cc(OCCCCCN3CCC(O[C@H]4C[C@H](Oc5ccc(-c6ccc7c8cnccc8n(C)c7c6)cn5)C4)CC3)no2)C(C)C)cc1 [Compound 379, (2S,4R)-4-hydroxy-1-((R)-3-methyl-2-(3-((5-(4-((1r,3r)-3-((5-(5-methyl-5H-pyrido[4,3-b]indol-7-yl)pyridin-2-yl)oxy)cyclobutoxy)piperidin-1-yl)pentyl)oxy)isoxazol-5-yl)butanoyl)-N-((S)-1-(4-(4-methylthiazol-5-yl)phenyl)ethyl) pyrrolidine-2-carboxamide] | > 50

same assay, conditions: remaining tau protein in sarkosyl insoluble pellet; CHOK1 Tau P301L cells treated 48 hours with test compound at 1 μM, doxycycline removed for the last 24 hours; relative to DMSO doxycycline control

Row | Structure (SMILES) | Tau Protein Degradation effect at 1 μM
16 | O=C1CCC(N2C(=O)c3ccc(N4CCN(CCCC5CCN(CC6CC(Oc7ccc(-c8ccc9c(c8)[nH]c8ccncc89)cn7)C6)CC5)CC4)cc3C2=O)C(=O)N1 (stereo not shown) [Compound 376, 5-(4-(3-(1-(((1r,3r)-3-((5-(5H-pyrido[4,3-b]indol-7-yl)pyridin-2-yl)oxy)cyclobutyl)methyl)piperidin-4-yl)propyl)piperazin-1-yl)-2-(2,6-dioxopiperidin-3-yl)isoindoline-1,3-dione] | B (>50% of tau protein remaining (≥50% of tau protein degraded))
